Source: the NIST ThermoML archive (doi:10.1016/j.jct.2018.12.031)

Assay: xn = mol fraction of the nth substance listed
Settings: 100 kPa, Liquid; for speed of sound: Frequency=3 MHz, Linear variable-path acoustic interferometer; for mass density: Pycnometric method

N#Cc1ccccc1 [benzonitrile] + C=C(C)C(=O)OC
Settings | mass density [kg/m3] | speed of sound [m/s]
293.15 K, x1 = 0.0652 | 948.11 | 1220.4
293.15 K, x1 = 0.1303 | 952.71 | 1239.9
293.15 K, x1 = 0.1922 | 956.98 | 1258.1
293.15 K, x1 = 0.271 | 962.27 | 1279.6
293.15 K, x1 = 0.3371 | 966.59 | 1296.9
293.15 K, x1 = 0.4174 | 971.69 | 1316.8
293.15 K, x1 = 0.4872 | 976 | 1333.2
293.15 K, x1 = 0.5689 | 980.9 | 1351.4
293.15 K, x1 = 0.6398 | 985.02 | 1366.6
293.15 K, x1 = 0.7089 | 988.92 | 1381.1
293.15 K, x1 = 0.7767 | 992.63 | 1394.4
293.15 K, x1 = 0.8571 | 996.88 | 1410
293.15 K, x1 = 0.9252 | 1000.34 | 1422.4
293.15 K, x1 = 1 | 1003.99 | 1436.9
298.15 K, x1 = 0.0652 | 942.55 | 1203.9
298.15 K, x1 = 0.1303 | 947.32 | 1223.6
298.15 K, x1 = 0.1922 | 951.75 | 1241.7
298.15 K, x1 = 0.271 | 957.23 | 1263.3
298.15 K, x1 = 0.3371 | 961.71 | 1280.2
298.15 K, x1 = 0.4174 | 966.99 | 1299.9
298.15 K, x1 = 0.4872 | 971.45 | 1316.2
298.15 K, x1 = 0.5689 | 976.51 | 1334.3
298.15 K, x1 = 0.6398 | 980.77 | 1349.3
298.15 K, x1 = 0.7089 | 984.8 | 1363.6
298.15 K, x1 = 0.7767 | 988.63 | 1376.7
298.15 K, x1 = 0.8571 | 993.01 | 1392.3
298.15 K, x1 = 0.9252 | 996.57 | 1404.6
298.15 K, x1 = 1 | 1000.32 | 1418.2
303.15 K, x1 = 0.0652 | 936.99 | 1189.3
303.15 K, x1 = 0.1303 | 941.93 | 1209
303.15 K, x1 = 0.1922 | 946.52 | 1227
303.15 K, x1 = 0.271 | 952.19 | 1248.3
303.15 K, x1 = 0.3371 | 956.83 | 1265.4
303.15 K, x1 = 0.4174 | 962.29 | 1284.8
303.15 K, x1 = 0.4872 | 966.9 | 1300.8
303.15 K, x1 = 0.5689 | 972.12 | 1319
303.15 K, x1 = 0.6398 | 976.52 | 1333.8
303.15 K, x1 = 0.7089 | 980.68 | 1348
303.15 K, x1 = 0.7767 | 984.63 | 1360.9
303.15 K, x1 = 0.8571 | 989.14 | 1376
303.15 K, x1 = 0.9252 | 992.8 | 1388.2
303.15 K, x1 = 1 | 996.65 | 1400.7
308.15 K, x1 = 0.0652 | 931.43 | 1173.8
308.15 K, x1 = 0.1303 | 936.55 | 1193.9
308.15 K, x1 = 0.1922 | 941.29 | 1211.7
308.15 K, x1 = 0.271 | 947.15 | 1232.7
308.15 K, x1 = 0.3371 | 951.93 | 1249.6
308.15 K, x1 = 0.4174 | 957.57 | 1268.8
308.15 K, x1 = 0.4872 | 962.33 | 1284.7
308.15 K, x1 = 0.5689 | 967.73 | 1302.9
308.15 K, x1 = 0.6398 | 972.27 | 1317.9
308.15 K, x1 = 0.7089 | 976.56 | 1332
308.15 K, x1 = 0.7767 | 980.63 | 1345.5
308.15 K, x1 = 0.8571 | 985.27 | 1360.6
308.15 K, x1 = 0.9252 | 989.03 | 1372
308.15 K, x1 = 1 | 992.98 | 1384
313.15 K, x1 = 0.0652 | 925.87 | 1157
313.15 K, x1 = 0.1303 | 931.16 | 1177.3
313.15 K, x1 = 0.1922 | 936.06 | 1195.3
313.15 K, x1 = 0.271 | 942.12 | 1216.5
313.15 K, x1 = 0.3371 | 947.05 | 1233.2
313.15 K, x1 = 0.4174 | 952.87 | 1252.4
313.15 K, x1 = 0.4872 | 957.78 | 1268.5
313.15 K, x1 = 0.5689 | 963.35 | 1286.5
313.15 K, x1 = 0.6398 | 968.02 | 1302.2
313.15 K, x1 = 0.7089 | 972.44 | 1316.5
313.15 K, x1 = 0.7767 | 976.63 | 1330.5
313.15 K, x1 = 0.8571 | 981.4 | 1345.5
313.15 K, x1 = 0.9252 | 985.26 | 1357.2
313.15 K, x1 = 1 | 989.31 | 1368.2
318.15 K, x1 = 0.0652 | 920.31 | 1140.3
318.15 K, x1 = 0.1303 | 925.77 | 1160.8
318.15 K, x1 = 0.1922 | 930.83 | 1179
318.15 K, x1 = 0.271 | 937.08 | 1200
318.15 K, x1 = 0.3371 | 942.18 | 1216.8
318.15 K, x1 = 0.4174 | 948.18 | 1236
318.15 K, x1 = 0.4872 | 953.23 | 1251.9
318.15 K, x1 = 0.5689 | 958.96 | 1270.3
318.15 K, x1 = 0.6398 | 963.77 | 1286
318.15 K, x1 = 0.7089 | 968.31 | 1300.9
318.15 K, x1 = 0.7767 | 972.61 | 1315
318.15 K, x1 = 0.8571 | 977.51 | 1330.8
318.15 K, x1 = 0.9252 | 981.48 | 1342.4
318.15 K, x1 = 1 | 985.64 | 1352.9
